Test results reported in US6057314A, “Low molecular weight bicyclic thrombin inhibitors” (Biochem Pharma Inc., priority 1997, dated 2000).

Legend:
[1] = tested on: washed platelets from rats; assay: Platelet secretion (14C-serotonin, 5-HT, release from washed rat platelets, thrombin stimulated); assay type: cell-based; conditions: Table 1, human thrombin 0.1 IU/mL, read-out: Antiplatelet activity, 5-HT Secretion (IC50)
Protocol: Platelet Aggregation and Secretion Rat blood was collected into ACD (6/1 v/v) by cardiac puncture. Suspensions of washed platelets were prepared as described by […] et al, (Br. J. Haematol. 1970, 19:7 and Proc. Soc. Exp. Biol. Med. 1971, 136:1021). […] Platelet counts were adjusted to 5000,000/ μL. To permit measurement of the extent of release of the contents of the dense granules, the platelets were labelled in the first washing solution with ^14 C-serotonin (5-HT) (1 μCi/10 mL of washing fluid) and release of ^14 C-serotonin was determined as described in Holmsen et al, (Enzymology, 1989, 169:206). […] (5 μM final conc.) was added to present the reuptake of released serotonin. Platelet aggregation was recorded at 37° C. in an aggregometer (BioData PAP-4) at a stirring speed of 1,100 rpm by measuring the variations of light transmission. […] IC50 values represent the concentration that was necessary to inhibit platelet aggregation or secretion to 50% of the control.

human thrombin [2] = target: T1, human thrombin (Homo sapiens, UniProt P00734); assay: dTT assay (fibrin clotting assay, human thrombin and bovine fibrinogen); assay type: biochemical; conditions: Table 1; concentration required to double the clotting time; read-out: dTT IC50
Text: The clotting time was plotted against the inhibitor concentrations and the IC50 was estimated as the inhibitor concentration required to double the clotting time relative to the control.

human thrombin [3] = target: T1, human thrombin; assay: Fibrin clot assay (human plasma, turbidity); assay type: biochemical; conditions: Table 1, 1 nM thrombin, at 30 minutes
Protocol: The fibrin clot assay was performed essentially as described by Krtenansky et al, FEBS, 1987, 211:10. A serial dilution of the inhibitor was prepared in 50 mM tri HCl buffer (pH 7.8 at 23° C.) containing 0.1 M NaCl and 0.1% (w/v) polyethylene glycol 8000. Human plasma (60 μL, collected in 3.8% sodium citrate, blood/anticoagulate 9:1) was added to microtiter wells (microtiter plate, Falcon) containing 100 μL of various inhibitor dilutions. The solution was mixed after which 50 μL of human thrombin (1 nM final conc.) was added and mixed for 15 seconds. The turbidity of the clot was immediately monitored by microplate autoreader (Dynateck MR 5000) at 405 nm and recorded every 3 min. The maximal turbidity in the absence of inhibitors was reached within 60 min. IC50 values were calculated at 30 minutes as the inhibitor concentration that gave half the optical density of the control.

[4] = tested on: washed platelets from rats; assay: Platelet aggregation (washed rat platelets, thrombin stimulated); assay type: cell-based; conditions: Table 1, suspension of washed platelets from rats, human thrombin 0.1 IU/mL, read-out: Antiplatelet activity, Aggregation (IC50)
Protocol: Platelet Aggregation and Secretion Rat blood was collected into ACD (6/1 v/v) by cardiac puncture. Suspensions of washed platelets were prepared as described by […] et al, (Br. J. Haematol. 1970, 19:7 and Proc. Soc. Exp. Biol. Med. 1971, 136:1021). […] Platelet counts were adjusted to 5000,000/ μL. Platelet aggregation was recorded at 37° C. in an aggregometer (BioData PAP-4) at a stirring speed of 1,100 rpm by measuring the variations of light transmission. […] IC50 values represent the concentration that was necessary to inhibit platelet aggregation or secretion to 50% of the control.

human thrombin [5] = target: T1, human thrombin; assay: Inhibition of amidolytic activity of human thrombin (Ki, fluorogenic substrate Tos-Gly-Pro-Arg-AMC); assay type: biochemical; conditions: Table 1, read-out: Ki (inhibitory dissociation constant for human thrombin)
Protocol: In an assay to determine the inhibitory dissociation constant, Ki, for a given compound, a chromogenic or fluorogenic substrate of thrombin would be added to a solution containing a test compound and thrombin; the resulting catalytic activity of the enzyme would be spectrophotometrically determined. This type of assay is well known to those skilled in the art.
Determination of K1 Values for Heterocyclics
The steady-state velocity was then measured for a few minutes. The compounds of this invention were also pre-incubated with thrombin for 20 minutes at room temperature before adding the substrate.

Row | IC50 [1] [µM] | IC50 (human thrombin [2]) [µM] | IC50 (human thrombin [3]) [µM] | IC50 [4] [µM] | Ki (human thrombin [5]) [µM] | SMILES
1 | > 100 | 162 | > 450 | > 100 | 16 | COC(=O)CCC(=O)C(CCCNC(=N)N)NC(=O)[C@@H]1CSC2CC[C@@H](Cc3ccccc3)C(=O)N21 (stereo partly drawn) [Compound 0015, 6S-benzylhexahydro-5-oxo-5H-thiazolo[3,2-a]pyridine-3R-carboxamido(propylcarbmethoxyketoarginine)]
2 | > 100 | 207 | > 450 | > 100 | 19 | N=C(N)NCCC[C@H](NC(=O)[C@@H]1CSC2CC[C@@H](CC3CCCCC3)C(=O)N21)C(=O)N1CCCC(C(N)=O)C1 (stereo partly drawn) [Compound 0040, 6S-cyclohexylmethylhexahydro-5-oxo-5H-thiazolo[3,2-a]pyridine-3R-carboxamido((S)-Argnipecotamide)]
3 | 2.1 | 25 | 78 | 22 | 4.4 | CC(SCC(=O)C(CCCNC(=N)N)NC(=O)[C@@H]1CSC2CC[C@@H](CC3CCCCC3)C(=O)N21)C(=O)O (stereo partly drawn) [Compound 0070, 6S-cyclohexylmethylhexahydro-5-oxo-5H-thiazolo[3,2-a]pyridine-3R-carboxamido(1-carboxy-2-methyl-3-thiobutylketoarginine)]
4 | 19 | 89.5 | > 450 | 21 | 4.6 | CCCCC(=O)C(CCCNC(=N)N)NC(=O)[C@@H]1CSC2CC[C@@H](Cc3ccccc3)C(=O)N21 (stereo partly drawn) [Compound 0010, 6S-benzylhexahydro-5-oxo-5H-thiazolo[3,2-a]pyridine-3R-carboxamido (butyl ketoarginine)]
5 | > 100 | 67 | 320 | > 100 | 8.6 | N=C(N)NCCC[C@H](NC(=O)[C@@H]1CSC2CC[C@@H](CC3CCCCC3)C(=O)N21)C(=O)N1CCCC[C@@H]1C(=O)O (stereo partly drawn) [Compound 0030, 6S-cyclohexylmethyl hexahydro-5-oxo-5H-thiazolo[3,2-a]pyridine-3R-carboxamido((S)-Arg-(R)-pipecolilic acid)]
6 | > 100 | > 625 | > 450 | > 100 | 53 | COC(=O)CCC1(C(CCCNC(=N)N)NC(=O)[C@@H]2CSC3CC[C@@H](CC4CCCCC4)C(=O)N32)SCCS1 (stereo partly drawn) [Compound 0025, 6S-cyclohexyl methyl hexahydro-5-oxo-5H-thiazolo[3,2-a]pyridine-3R-carboxamido(carbmethoxypropylcyclodithioketalarginine)]
7 | 14.2 | 22 | > 450 | 18 | 2.2 | N=C(N)NCCCC(NC(=O)[C@@H]1CSC2CC[C@@H](CC3CCCCC3)C(=O)N21)C(=O)Cc1ccccc1 (stereo partly drawn) [Compound 0020, 6S-cyclohexymethyl hexahydro-5-oxo-5H-thiazolo[3,2-a]pyridine-3R-carboxamido(benzylketoarginine)]
8 | > 100 | 319 | > 450 | > 100 | 34 | N=C(N)NCCCC(NC(=O)[C@@H]1CSC2CC[C@@H](Cc3ccccc3)C(=O)N21)C1(CCC(N)=O)SCCS1 (stereo partly drawn) [Compound 0035, 6S-benzylhexahydro-5-oxo-5H-thiazolo[3,2-a]pyridine-3R-carboxamido(carboxamidopropylcyclodithioketalarginine)]
9 | 52 | 42 | 200 | 47.5 | 32.7 | N=C(N)NCCCC(NC(=O)[C@@H]1CSC2CC[C@@H](CC3CCCCC3)C(=O)N21)C(=O)CSCC(=O)O (stereo partly drawn) [Compound 0065, 6S-cyclohexylmethylhexahydro-5-oxo-5H-thiazolo[3,2-a]pyridine-3R-carboxamido(1-carboxy-3-thiobutylketoarginine)]
